# Results: patent US12161649B2, “Inhibitors of EGFR and methods of use thereof” (DANA-FARBER CANCER INSTITUTE, INC., priority 2018, dated 2024)
# Read-outs that look alike come from different tables or passages of the source.
# How the values were obtained:
# [1] = molecular target: T1, recombinant EGFR 790M/L858R kinase (Homo sapiens, UniProt P00533, L858R/T790M); assay: HTRF-based EGFR biochemical assay
# T1 construct: Constructs spanning residues 696-1022 of the human EGFR; GST (cleaved yes); made in house; host or cells: Sf9 insect cells
# T1 sequence (P00533 696-1022 T790M/L858R): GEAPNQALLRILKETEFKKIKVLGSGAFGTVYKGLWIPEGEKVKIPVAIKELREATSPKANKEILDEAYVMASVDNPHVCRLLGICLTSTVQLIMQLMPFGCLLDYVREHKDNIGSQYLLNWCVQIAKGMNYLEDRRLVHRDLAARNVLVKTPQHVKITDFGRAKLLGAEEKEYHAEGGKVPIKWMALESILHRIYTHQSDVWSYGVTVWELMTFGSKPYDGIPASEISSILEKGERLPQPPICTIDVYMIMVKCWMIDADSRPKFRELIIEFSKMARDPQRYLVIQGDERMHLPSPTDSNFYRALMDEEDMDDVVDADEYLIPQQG
# Method: EGFR biochemical assays are carried out using a homogeneous time-resolved fluorescence (HTRF) assay. The reaction mixtures contain biotin-Lck-peptide substrate, wild type, or mutant EGFR enzyme in reaction buffer. Enzyme concentrations are adjusted to accommodate varying kinase activity and ATP concentrations. Compounds of the present application are diluted into the assay mixture and IC50 values are determined using 12-point inhibition curves.
# Constructs spanning residues 696-1022 of the human EGFR (including wild type and L858R, L858R/T790M, T790M, and T790M/V948R mutant sequences) were prepared in a GST-fusion format using the pTriEX system (Novagen) for expression in Sf9 insect cells essentially as described (Yun et al., PNAS 105, 2070-2075 (2008): Yun et al., Cancer Cell 11, 217-227 (2007)). EGFR kinase proteins were purified by glutathione-affinity chromatography followed by size-exclusion chromatography after cleavage with TEV or thrombin to remove the GST fusion partner following established procedures. (Yun 2008; Yun 2007).
# EGFR biochemical assays were carried out using a homogeneous time-resolved fluorescence (HTRF) assay as described previously. The reaction mixtures contained 1 μM biotin-Lck-peptide substrate, wild type or mutant EGFR enzyme in reaction buffer (50 mM HEPES pH 7.1, 10 mM MgCl2, 0.01% BSA, 1 mM TCEP and 0.1 mM […]) at a final volume of 10 μL. Enzyme concentrations were adjusted to accommodate varying kinase activity and ATP concentrations (0.2-0.4 nM L858R/T790M; or 2-4 nM L858R, or 2-4 nM T790M, or 40 nM WT). All reactions were carried out at room temperature in white ProxiPlate™ 384-well Plus plates (PerkinElmer) and were quenched with 5 μL of 0.2 M EDTA at 60 min. Five μL per well of the detection reagent containing 2.5 ng PT66K (Cis-bio) and 0.05 μg SAXL (Prozyme) were added, and the plates were then incubated at room temperature for 1 hour and read with an EnVision plate reader. For IC50 determinations, compounds of the present application were diluted into assay mixture (final DMSO 0.5%), and IC50 values were determined by 12-point inhibition curves (from 50 to 0.000282 μM) in duplicate under the assay conditions as described above.
# T790M/L858R Ba/F3 cells = molecular target: T2, T790M/L858R Ba/F3 cells (Homo sapiens, UniProt P00533, T790M/L858R, cells depend on it); assay: Ba/F3 cell proliferation (MTS assay); assay type: cell-based, murine; details: antiproliferative activity
# T2 construct: The constructs were shuttled into the retroviral vector JP1540 using the BD Creator® System (BD Biosciences)
# T2 sequence (P00533 whole entry T790M/L858R): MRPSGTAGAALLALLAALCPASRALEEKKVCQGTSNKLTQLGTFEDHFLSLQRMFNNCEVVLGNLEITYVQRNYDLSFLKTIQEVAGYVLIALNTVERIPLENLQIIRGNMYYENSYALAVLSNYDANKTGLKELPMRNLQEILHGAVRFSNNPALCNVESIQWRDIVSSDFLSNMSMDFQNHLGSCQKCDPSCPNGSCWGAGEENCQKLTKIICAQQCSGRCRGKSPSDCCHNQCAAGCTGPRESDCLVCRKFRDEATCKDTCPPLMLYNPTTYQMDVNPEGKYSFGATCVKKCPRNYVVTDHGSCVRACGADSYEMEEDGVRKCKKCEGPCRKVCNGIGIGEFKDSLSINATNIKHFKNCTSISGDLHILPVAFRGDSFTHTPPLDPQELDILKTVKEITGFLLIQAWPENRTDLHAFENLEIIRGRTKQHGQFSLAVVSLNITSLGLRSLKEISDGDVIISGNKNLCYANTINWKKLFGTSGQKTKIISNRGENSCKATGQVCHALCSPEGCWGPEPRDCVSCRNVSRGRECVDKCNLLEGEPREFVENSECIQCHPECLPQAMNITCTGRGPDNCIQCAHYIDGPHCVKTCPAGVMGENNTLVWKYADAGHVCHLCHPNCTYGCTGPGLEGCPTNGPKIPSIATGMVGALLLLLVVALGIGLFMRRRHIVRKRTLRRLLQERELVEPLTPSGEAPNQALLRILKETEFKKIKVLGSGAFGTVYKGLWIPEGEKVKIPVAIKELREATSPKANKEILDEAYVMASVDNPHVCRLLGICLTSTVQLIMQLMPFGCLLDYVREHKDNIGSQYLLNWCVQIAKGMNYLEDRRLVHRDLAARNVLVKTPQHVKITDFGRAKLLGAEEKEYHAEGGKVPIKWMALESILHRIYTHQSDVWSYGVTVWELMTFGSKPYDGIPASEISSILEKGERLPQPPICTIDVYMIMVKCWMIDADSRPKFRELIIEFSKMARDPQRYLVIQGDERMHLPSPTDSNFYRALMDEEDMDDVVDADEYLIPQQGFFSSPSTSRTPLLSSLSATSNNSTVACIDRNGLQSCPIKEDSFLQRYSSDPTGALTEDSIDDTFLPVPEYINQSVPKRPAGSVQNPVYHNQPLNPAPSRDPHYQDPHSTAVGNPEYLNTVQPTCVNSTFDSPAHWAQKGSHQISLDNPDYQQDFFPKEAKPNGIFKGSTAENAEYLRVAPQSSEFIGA
# Method: The EGFR mutant L858R, Del E746_A750, L858R/T790M, DelE746_A750/T790M, L858R/T790M/C797S and Del/T790M/C797S Ba/F3 cells were previously described (Zhou et al., Nature 462, (2009), 1070-1074). All cell lines were maintained in RPMI 1640 (Cellgro; Mediatech Inc., Herndon, CA) supplemented with 10% FBS 100 units/mL penicillin, 100 units/mL streptomycin, and 2 mM glutamine. L858R cells were maintained in ACL-4 media (Invitrogen, Carlsbad, CA) supplemented with 5% FBS, 100 units/mL penicillin, 100 units/mL streptomycin, and 2 mM glutamine. The EGFR 1941R mutation was introduced via site directed mutagenesis using the Quick Change Site-Directed Mutagenesis kit (Stratagene; La Jolla, CA) according to the manufacturer's instructions. All constructs were confirmed by DNA sequencing. The constructs were shuttled into the retroviral vector JP1540 using the BD Creator® System (BD Biosciences). Ba/F3 cells were infected with retrovirus and according to standard protocols, as described previously (Zhou 2009). Stable clones were obtained by selection in puromycin (2 μg/ml).
# Growth and inhibition of growth was assessed by MTS assay and was performed according to previously established methods (Zhou 2009). The MTS assay is a colorimetric method for determining the number of viable cells that is based on the bioreduction of MTS by cells to a formazan product that is soluble in cell culture medium and can be detected spectrophotometrically. Ba/F3 cells of different EGFR genotypes were exposed to treatment and the number of cells used per experiment determined empirically and has been previously established (Zhou 2009). All experimental points were set up in six wells and all experiments were repeated at least three times. […] The curves were fitted using a non-linear regression model with a sigmoidal dose response.
# [2] = absence of cetuximab, read-out: Ba/F3 cellular activity (EC50) T790M/L858R
# [3] = read-out: Ba/F3 cellular activity (EC50) T790M/L858R + Cetuximab, presence of 1 μg/mL cetuximab
IC50 [1] [nM],EC50 (T790M/L858R Ba/F3 cells; [2]) [nM],EC50 (T790M/L858R Ba/F3 cells; [3]) [nM],SMILES
> 750,> 750,> 750,"CN1CCN(c2ccc(C(=O)N[C@H]3CNc4ccc(F)cc4N(Cc4ccccc4)C3=O)cc2)CC1 [Compound I-1, (S)-N-(1-benzyl-8-fluoro-2-oxo-2,3,4,5-tetrahydro-1H-benzo[b][1,4]diazepin-3-yl)-4-(4-methylpiperazin-1-yl)benzamide]"
> 750,> 750,> 750,"CN1CCN(c2ccc(NC(=O)N[C@H]3CNc4ccc(F)cc4N(Cc4ccccc4)C3=O)cc2)CC1 [Compound I-2, (S)-1-(1-benzyl-8-fluoro-2-oxo-2,3,4,5-tetrahydro-1H-benzo[b][1,4]diazepin-3-yl)-3-(4-(4-methylpiperazin-1-yl)phenyl)urea]"
> 750,> 750,> 750,"O=C(Cc1ccc(N2CCOCC2)cc1)N[C@H]1CNc2ccc(F)cc2N(Cc2ccccc2)C1=O [Compound I-3, (S)-N-(1-benzyl-8-fluoro-2-oxo-2,3,4,5-tetrahydro-1H-benzo[b][1,4]diazepin-3-yl)-2-(4-morpholinophenyl)acetamide]"
> 750,> 750,> 750,"CN1CCN(c2cccc(C(=O)N[C@H]3CNc4ccc(F)cc4N(Cc4ccccc4)C3=O)c2)CC1 [Compound I-4, (S)-N-(1-benzyl-8-fluoro-2-oxo-2,3,4,5-tetrahydro-1H-benzo[b][1,4]diazepin-3-yl)-3-(4-methylpiperazin-1-yl)benzamide]"
> 750,> 750,> 750,"COc1cc(N2CCOCC2)ccc1C(=O)N[C@H]1CNc2ccc(F)cc2N(Cc2ccccc2)C1=O [Compound I-5, (S)-N-(1-benzyl-8-fluoro-2-oxo-2,3,4,5-tetrahydro-1H-benzo[b][1,4]diazepin-3-yl)-2-methoxy-4-morpholinobenzamide]"
> 750,> 750,> 750,"CN1CCN(c2ccnc(C(=O)N[C@H]3CNc4ccc(F)cc4N(Cc4ccccc4)C3=O)c2)CC1 [Compound I-6, (S)-N-(1-benzyl-8-fluoro-2-oxo-2,3,4,5-tetrahydro-1H-benzo[b][1,4]diazepin-3-yl)-4-(4-methylpiperazin-1-yl)picolinamide]"
> 750,> 750,> 750,"COc1ccc(C2=CCNCC2)cc1C(=O)N[C@H]1CNc2ccc(F)cc2N(Cc2ccccc2)C1=O [Compound I-7, (S)-N-(1-benzyl-8-fluoro-2-oxo-2,3,4,5-tetrahydro-1H-benzo[b][1,4]diazepin-3-yl)-2-methoxy-5-(1,2,3,6-tetrahydropyridin-4-yl)benzamide]"
> 750,> 750,> 750,"O=C(N[C@H]1CNc2ccc(F)cc2N(Cc2ccccc2)C1=O)c1ccc(N2CCOCC2)cn1 [Compound I-8, (S)-N-(1-Benzyl-8-fluoro-2-oxo-2,3,4,5-tetrahydro-1H-benzo[b][1,4]diazepin-3-yl)-5-morpholinopicolinamide]"
> 750,> 750,> 750,"O=C(Cc1ccc(-n2cnnn2)cc1)N[C@H]1CNc2ccc(F)cc2N(Cc2ccccc2)C1=O [Compound I-9, (S)-2-(4-(1H-tetrazol-1-yl)phenyl)-N-(1-benzyl-8-fluoro-2-oxo-2,3,4,5-tetrahydro-1H-benzo[b][1,4]diazepin-3-yl)acetamide]"
< 250,> 750,< 250,"O=C1[C@@H](N2Cc3ccc(F)cc3C2=O)CNc2ccc(F)cc2N1Cc1ccccc1 [Compound I-10, (S)-1-benzyl-8-fluoro-3-(6-fluoro-1-oxoisoindolin-2-yl)-1,3,4,5-tetrahydro-2H-benzo[b][1,4]diazepin-2-one]"
< 250,> 750,< 250,"CN1CCN(c2ccc(-c3ccc4c(c3)C(=O)N([C@H]3CNc5ccc(F)cc5N(Cc5ccccc5)C3=O)C4)cc2)CC1 [Compound I-11, (S)-1-benzyl-8-fluoro-3-(6-(4-(4-methylpiperazin-1-yl)phenyl)-1-oxoisoindolin-2-yl)-1,3,4,5-tetrahydro-2H-benzo[b][1,4]diazepin-2-one]"
> 750,> 750,> 750,"CN1CCN(c2ccc3c(c2)C(=O)N([C@H]2CNc4ccc(F)cc4N(Cc4ccccc4)C2=O)C3)CC1 [Compound I-13, (S)-1-benzyl-8-fluoro-3-(6-(4-methylpiperazin-1-yl)-1-oxoisoindolin-2-yl)-1,3,4,5-tetrahydro-2H-benzo[b][1,4]diazepin-2-one]"
< 250,> 750,< 250,"CN1CCN(c2ccc(-c3ccc4c(c3)CN([C@H]3CNc5ccc(F)cc5N(Cc5ccccc5)C3=O)C4=O)cc2)CC1 [Compound I-14, (S)-1-benzyl-8-fluoro-3-(5-(4-(4-methylpiperazin-1-yl)phenyl)-1-oxoisoindolin-2-yl)-1,3,4,5-tetrahydro-2H-benzo[b][1,4]diazepin-2-one]"
